Values after ≈ are worked out from the molar mass of the structure shown. Like-named read-outs stand apart in the source and are kept apart here.
Assays:
Pseudomonas aeruginosa = assay: MIC/MBC against CF isolates (CLSI, alamar blue)
Acinetobacter baumannii = assay: MIC/MBC against clinical isolates (CLSI, alamar blue); conditions: Acinetobacter baumannii
Burkholderia cenocepacia = assay: MIC/MBC against CF isolates (CLSI, alamar blue); conditions: Burkholderia cenocepacia
[1] = system: Stenotrophomonas maltophilia; assay: MIC/MBC against CF isolates (CLSI, alamar blue); conditions: Stenotrophomonas maltophilia
[2] = Pseudomonas aeruginosa, CF Pseudomonas isolate NB1
[3] = Pseudomonas aeruginosa, CF Pseudomonas isolate NB2
[4] = Pseudomonas aeruginosa, CF Pseudomonas isolate NB3
[5] = Pseudomonas aeruginosa, CF Pseudomonas isolate NB4
[6] = Pseudomonas aeruginosa, CF Pseudomonas isolate NB5
[7] = Pseudomonas aeruginosa, CF Pseudomonas isolate NB6
[8] = Pseudomonas aeruginosa, CF Pseudomonas isolate NB7
[9] = Pseudomonas aeruginosa, CF Pseudomonas isolate NB8
[10] = Pseudomonas aeruginosa, CF Pseudomonas isolate NB9
[11] = Pseudomonas aeruginosa, CF Pseudomonas isolate NB10
[12] = Pseudomonas aeruginosa, CF Pseudomonas isolate NB11
[13] = Pseudomonas aeruginosa, CF Pseudomonas isolate NB12
[14] = Pseudomonas aeruginosa, CF Pseudomonas isolate NB13
[15] = Pseudomonas aeruginosa, CF Pseudomonas isolate NB14
[16] = Pseudomonas aeruginosa, CF Pseudomonas isolate NB15
[17] = Pseudomonas aeruginosa, CF Pseudomonas isolate NB16
[18] = Pseudomonas aeruginosa, CF Pseudomonas isolate NB17
[19] = Pseudomonas aeruginosa, CF Pseudomonas isolate NB18
[20] = Pseudomonas aeruginosa, CF Pseudomonas isolate NB19
[21] = Pseudomonas aeruginosa, CF Pseudomonas isolate NB20
[22] = CF Stenotrophomonas isolate NB41
[23] = CF Stenotrophomonas isolate NB42
[24] = CF Stenotrophomonas isolate NB43
[25] = CF Stenotrophomonas isolate NB44
[26] = CF Stenotrophomonas isolate NB45
[27] = CF Stenotrophomonas isolate Steno 1
[28] = CF Stenotrophomonas isolate Steno 2
[29] = CF Stenotrophomonas isolate Steno 3
[30] = CF Stenotrophomonas isolate Steno 4
[31] = CF Stenotrophomonas isolate Steno 6
[32] = CF Stenotrophomonas isolate Steno 8

Structure (SMILES): CO[C@@]1(NC(=O)Cc2cccs2)C(=O)N2C(C(=O)O)=C(COC(N)=O)CS[C@@H]21 [Cefoxitin]
- MBC 90 (Pseudomonas aeruginosa; 20 CF Pseudomonas isolates): >256 µg/mL
- MIC50 (Pseudomonas aeruginosa; Pseudomonas aeruginosa): > 256 µg/mL
- MIC90 (Pseudomonas aeruginosa; Pseudomonas aeruginosa): > 256 µg/mL
- MBC (Pseudomonas aeruginosa; [2]): > 256 µg/mL
- MIC (Pseudomonas aeruginosa; [2]): > 256 µg/mL
- MBC (Pseudomonas aeruginosa; [3]): > 256 µg/mL
- MIC (Pseudomonas aeruginosa; [3]): > 256 µg/mL
- MBC (Pseudomonas aeruginosa; [4]): > 256 µg/mL
- MIC (Pseudomonas aeruginosa; [4]): > 256 µg/mL
- MBC (Pseudomonas aeruginosa; [5]): > 256 µg/mL
- MIC (Pseudomonas aeruginosa; [5]): > 256 µg/mL
- MBC (Pseudomonas aeruginosa; [6]): > 256 µg/mL
- MIC (Pseudomonas aeruginosa; [6]): > 256 µg/mL
- MBC (Pseudomonas aeruginosa; [7]): > 256 µg/mL
- MIC (Pseudomonas aeruginosa; [7]): > 256 µg/mL
- MBC (Pseudomonas aeruginosa; [8]): > 256 µg/mL
- MIC (Pseudomonas aeruginosa; [8]): > 256 µg/mL
- MBC (Pseudomonas aeruginosa; [9]): > 256 µg/mL
- MIC (Pseudomonas aeruginosa; [9]): > 256 µg/mL
- MBC (Pseudomonas aeruginosa; [10]): > 256 µg/mL
- MIC (Pseudomonas aeruginosa; [10]): > 256 µg/mL
- MBC (Pseudomonas aeruginosa; [11]): > 256 µg/mL
- MIC (Pseudomonas aeruginosa; [11]): > 256 µg/mL
- MBC (Pseudomonas aeruginosa; [12]): > 256 µg/mL
- MIC (Pseudomonas aeruginosa; [12]): > 256 µg/mL
- MBC (Pseudomonas aeruginosa; [13]): > 256 µg/mL
- MIC (Pseudomonas aeruginosa; [13]): > 256 µg/mL
- MBC (Pseudomonas aeruginosa; [14]): > 256 µg/mL
- MIC (Pseudomonas aeruginosa; [14]): > 256 µg/mL
- MBC (Pseudomonas aeruginosa; [15]): > 256 µg/mL
- MIC (Pseudomonas aeruginosa; [15]): > 256 µg/mL
- MBC (Pseudomonas aeruginosa; [16]): > 256 µg/mL
- MIC (Pseudomonas aeruginosa; [16]): > 256 µg/mL
- MBC (Pseudomonas aeruginosa; [17]): > 256 µg/mL
- MIC (Pseudomonas aeruginosa; [17]): > 256 µg/mL
- MBC (Pseudomonas aeruginosa; [18]): > 256 µg/mL
- MIC (Pseudomonas aeruginosa; [18]): > 256 µg/mL
- MBC (Pseudomonas aeruginosa; [19]): > 256 µg/mL
- MIC (Pseudomonas aeruginosa; [19]): > 256 µg/mL
- MBC (Pseudomonas aeruginosa; [20]): > 256 µg/mL
- MIC (Pseudomonas aeruginosa; [20]): > 256 µg/mL
- MBC (Pseudomonas aeruginosa; [21]): > 256 µg/mL
- MIC (Pseudomonas aeruginosa; [21]): > 256 µg/mL
- MBC (Pseudomonas aeruginosa; Pseudomonas aeruginosa, read-out: MBC 50, 20 CF Pseudomonas isolates): > 256 µg/mL
- MBC (Pseudomonas aeruginosa; Pseudomonas aeruginosa, read-out: MBC 50, second MBC 50 line of the summary, Stenotrophomonas, values equal those of the CF Pseudomonas isolates): > 256 µg/mL
- MIC50 (Acinetobacter baumannii): > 256 µg/mL
- MIC90 (Acinetobacter baumannii): > 256 µg/mL
- MBC (Acinetobacter baumannii; Acinetobacter isolate NB31): > 256 µg/mL
- MIC (Acinetobacter baumannii; Acinetobacter isolate NB31): > 256 µg/mL
- MBC (Acinetobacter baumannii; Acinetobacter isolate NB32): 256 µg/mL (≈ 599 µM)
- MIC (Acinetobacter baumannii; Acinetobacter isolate NB32): 256 µg/mL (≈ 599 µM)
- MBC (Acinetobacter baumannii; Acinetobacter isolate NB33): > 256 µg/mL
- MIC (Acinetobacter baumannii; Acinetobacter isolate NB33): > 256 µg/mL
- MBC (Acinetobacter baumannii; Acinetobacter isolate NB34): > 256 µg/mL
- MIC (Acinetobacter baumannii; Acinetobacter isolate NB34): > 256 µg/mL
- MBC (Acinetobacter baumannii; Acinetobacter isolate NB35): > 256 µg/mL
- MIC (Acinetobacter baumannii; Acinetobacter isolate NB35): > 256 µg/mL
- MBC (Acinetobacter baumannii; Acinetobacter isolate NB36): 128 µg/mL (≈ 299 µM)
- MIC (Acinetobacter baumannii; Acinetobacter isolate NB36): 128 µg/mL (≈ 299 µM)
- MBC (Acinetobacter baumannii; Acinetobacter isolate NB37): > 256 µg/mL
- MIC (Acinetobacter baumannii; Acinetobacter isolate NB37): > 256 µg/mL
- MBC (Acinetobacter baumannii; Acinetobacter isolate NB38): > 256 µg/mL
- MIC (Acinetobacter baumannii; Acinetobacter isolate NB38): > 256 µg/mL
- MBC (Acinetobacter baumannii; Acinetobacter isolate NB39): > 256 µg/mL
- MIC (Acinetobacter baumannii; Acinetobacter isolate NB39): > 256 µg/mL
- MBC (Acinetobacter baumannii; Acinetobacter isolate NB40): > 256 µg/mL
- MIC (Acinetobacter baumannii; Acinetobacter isolate NB40): > 256 µg/mL
- MBC (Acinetobacter baumannii; read-out: MBC 50, 10 Acinetobacter isolates): > 256 µg/mL
- MIC90 (Burkholderia cenocepacia): 256 µg/mL (≈ 599 µM)
- MIC50 (Burkholderia cenocepacia; 10 CF Burkholderia isolates): 128 µg/mL (≈ 299 µM)
- MBC (Burkholderia cenocepacia; CF Burkholderia isolate NB21): > 256 µg/mL
- MIC (Burkholderia cenocepacia; CF Burkholderia isolate NB21): 256 µg/mL (≈ 599 µM)
- MBC (Burkholderia cenocepacia; CF Burkholderia isolate NB22): 256 µg/mL (≈ 599 µM)
- MIC (Burkholderia cenocepacia; CF Burkholderia isolate NB22): 128 µg/mL (≈ 299 µM)
- MBC (Burkholderia cenocepacia; CF Burkholderia isolate NB23): > 256 µg/mL
- MIC (Burkholderia cenocepacia; CF Burkholderia isolate NB23): > 256 µg/mL
- MBC (Burkholderia cenocepacia; CF Burkholderia isolate NB24): > 256 µg/mL
- MIC (Burkholderia cenocepacia; CF Burkholderia isolate NB24): 128 µg/mL (≈ 299 µM)
- MBC (Burkholderia cenocepacia; CF Burkholderia isolate NB25): 256 µg/mL (≈ 599 µM)
- MIC (Burkholderia cenocepacia; CF Burkholderia isolate NB25): 128 µg/mL (≈ 299 µM)
- MBC (Burkholderia cenocepacia; CF Burkholderia isolate NB26): 256 µg/mL (≈ 599 µM)
- MIC (Burkholderia cenocepacia; CF Burkholderia isolate NB26): 128 µg/mL (≈ 299 µM)
- MBC (Burkholderia cenocepacia; CF Burkholderia isolate NB27): > 256 µg/mL
- MIC (Burkholderia cenocepacia; CF Burkholderia isolate NB27): 128 µg/mL (≈ 299 µM)
- MBC (Burkholderia cenocepacia; CF Burkholderia isolate NB28b): 16 µg/mL (≈ 37.4 µM)
- MIC (Burkholderia cenocepacia; CF Burkholderia isolate NB28b): 16 µg/mL (≈ 37.4 µM)
- MBC (Burkholderia cenocepacia; CF Burkholderia isolate NB29): > 256 µg/mL
- MIC (Burkholderia cenocepacia; CF Burkholderia isolate NB29): 256 µg/mL (≈ 599 µM)
- MBC (Burkholderia cenocepacia; CF Burkholderia isolate NB30): 128 µg/mL (≈ 299 µM)
- MIC (Burkholderia cenocepacia; CF Burkholderia isolate NB30): 128 µg/mL (≈ 299 µM)
- MIC50 [1]: > 256 µg/mL
- MIC90 [1]: > 256 µg/mL
- MBC [1, 22]: > 256 µg/mL
- MIC [1, 22]: > 256 µg/mL
- MBC [1, 23]: > 256 µg/mL
- MIC [1, 23]: > 256 µg/mL
- MBC [1, 24]: > 256 µg/mL
- MIC [1, 24]: > 256 µg/mL
- MBC [1, 25]: > 256 µg/mL
- MIC [1, 25]: 256 µg/mL (≈ 599 µM)
- MBC [1, 26]: > 256 µg/mL
- MIC [1, 26]: > 256 µg/mL
- MBC [1, 27]: > 256 µg/mL
- MIC [1, 27]: > 256 µg/mL
- MBC [1, 28]: > 256 µg/mL
- MIC [1, 28]: > 256 µg/mL
- MBC [1, 29]: > 256 µg/mL
- MIC [1, 29]: 256 µg/mL (≈ 599 µM)
- MBC [1, 30]: 256 µg/mL (≈ 599 µM)
- MIC [1, 30]: 256 µg/mL (≈ 599 µM)
- MBC [1, 31]: 256 µg/mL (≈ 599 µM)
- MIC [1, 31]: 128 µg/mL (≈ 299 µM)
- MBC [1, 32]: > 256 µg/mL
- MIC [1, 32]: > 256 µg/mL
- MBC ([1]; read-out: MBC 50, 11 CF Stenotrophomonas isolates): > 256 µg/mL

Structure (SMILES): CCN1CCN(C(=O)N[C@@H](C(=O)N[C@@H]2C(=O)N3[C@@H]2SC(C)(C)[C@@H]3C(=O)O)c2ccccc2)C(=O)C1=O [Pipercillin]
- MBC (Pseudomonas aeruginosa; CF Pseudomonas isolate NB1): 1024 µg/mL (≈ 1980 µM)
- MIC (Pseudomonas aeruginosa; CF Pseudomonas isolate NB1): 1024 µg/mL (≈ 1980 µM)
- MBC (Pseudomonas aeruginosa; CF Pseudomonas isolate NB2): 128 µg/mL (≈ 247 µM)
- MIC (Pseudomonas aeruginosa; CF Pseudomonas isolate NB2): 128 µg/mL (≈ 247 µM)
- MBC (Pseudomonas aeruginosa; CF Pseudomonas isolate NB3): >1024 µg/mL
- MIC (Pseudomonas aeruginosa; CF Pseudomonas isolate NB3): >1024 µg/mL
- MBC (Pseudomonas aeruginosa; CF Pseudomonas isolate NB4): 1024 µg/mL (≈ 1980 µM)
- MIC (Pseudomonas aeruginosa; CF Pseudomonas isolate NB4): 512 µg/mL (≈ 989 µM)
- MBC (Pseudomonas aeruginosa; CF Pseudomonas isolate NB5): >1024 µg/mL
- MIC (Pseudomonas aeruginosa; CF Pseudomonas isolate NB5): >1024 µg/mL
- MBC (Pseudomonas aeruginosa; CF Pseudomonas isolate NB6): >1024 µg/mL
- MIC (Pseudomonas aeruginosa; CF Pseudomonas isolate NB6): 1024 µg/mL (≈ 1980 µM)
- MBC (Pseudomonas aeruginosa; CF Pseudomonas isolate NB7): 1024 µg/mL (≈ 1980 µM)
- MIC (Pseudomonas aeruginosa; CF Pseudomonas isolate NB7): 512 µg/mL (≈ 989 µM)
- MBC (Pseudomonas aeruginosa; CF Pseudomonas isolate NB8): >1024 µg/mL
- MIC (Pseudomonas aeruginosa; CF Pseudomonas isolate NB8): >1024 µg/mL
- MBC (Pseudomonas aeruginosa; CF Pseudomonas isolate NB9): >1024 µg/mL
- MIC (Pseudomonas aeruginosa; CF Pseudomonas isolate NB9): 512 µg/mL (≈ 989 µM)
- MBC (Pseudomonas aeruginosa; CF Pseudomonas isolate NB10): 512 µg/mL (≈ 989 µM)
- MIC (Pseudomonas aeruginosa; CF Pseudomonas isolate NB10): 256 µg/mL (≈ 495 µM)
